Source: patent US8609836B2, “4-aryl-2-anilino-pyrimidines” (Janssen Pharmaceutica NV, priority 2008, dated 2013)

Assays:
[1] = test system: MDA-MB-231; assay: Cellular proliferation assay (Alamar blue), MDA-MB-231; format: cell-based; details: Homo sapiens, 10% FCS, 72 hours with compound, Alamar blue 24 h, read-out: MDA/MB231 (cellular proliferation assay, Table 4) (converted)
Summary of the method: (§1)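 Alamar blue fluorescence (544/590 nm) measured viable cells after 72 h compound exposure; dye incubation 4 h (HCT-116), 6 h (U87-MG) or 24 h (A2780, MDA-MB-231). Cells pre-seeded 24 h, grown in 10% FCS, 37° C, 5% CO2; effect expressed relative to control cells.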

[2] = molecular target: CDK1/CyclinB (h) (Homo sapiens, UniProt P06493); assay: CDK1/CyclinB human kinase inhibition, Invitrogen's FRET assay (Z'lyte); format: biochemical; details: read-out: CDK1 pIC50 (converted)
Summary of the method: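 Read-out is the 460 nm/538 nm emission ratio (390 nm excitation) after a 60 min protease development step. Before that, 10 μM ATP and 2 μM Z'lyte Ser/Thr peptide 12 react 60 min at room temperature with 0.2 μg/ml human CDK1/CyclinB in Hepes pH 7.5 containing MgCl2, EGTA and Brij-35.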

[3] = molecular target: PLK1 T210D (h) (Homo sapiens, UniProt P53350, T210D); assay: PLK1 human kinase inhibition, SPA; format: biochemical; details: read-out: PLK1 pIC50 (converted)
Summary of the method: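 Kinase incubated 40 min at room temperature with 0.1 μM ATP (2 nM [γ-33P]ATP tracer), 2 μM biotinylated peptide, pH 8.0 Hepes buffer with 2 mM MnCl2 and 1 mM DTT; enzyme at 0.125 ng/ml. Stopped with EDTA; 33P-peptide bound to streptavidin scintillant beads and imaged.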

[4] = test system: U87-MG; assay: Cellular proliferation assay (Alamar blue), U87-MG; format: cell-based; details: Homo sapiens, U-87 MG; 10% FCS; 72 hours with compound; Alamar blue 6 h; read-out: U87-MG (cellular proliferation assay, Table 4) (converted)
Summary of the method: as §1

[5] = test system: A2780; assay: Cellular proliferation assay (Alamar blue), A2780; format: cell-based; details: Homo sapiens, 10% FCS, 72 hours with compound, Alamar blue 24 h, read-out: A2780 (cellular proliferation assay, Table 4) (converted)
Summary of the method: as §1

[6] = molecular target: PLK2 (h) (Homo sapiens, UniProt Q9NYY3); assay: PLK2 human kinase inhibition, SPA; format: biochemical; details: read-out: PLK2 pIC50 (converted)
Summary of the method: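 33P incorporation into a biotinylated peptide (2 μM) was captured on streptavidin PVT beads and imaged on Leadseeker. Enzyme at 30 μg/ml, ATP 0.1 μM with 2 nM [γ-33P]ATP, Hepes pH 8.0 with MnCl2 and DTT. Incubation was 20 min at room temperature.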

[7] = test system: H1299; assay: Cellular proliferation assay (Alamar blue), H1299; format: cell-based; details: Homo sapiens, NCI-H1299; 10% FCS; 72 hours with compound; Alamar blue 4 h
Summary of the method: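 This proliferation assay on NCI-H1299 cells used an initial 24-hour compound-free incubation after seeding, followed by 72 hours of compound treatment with 10% FCS serum at 37° C. and 5% (v/v) CO2. Viable cells were quantified by a 4 h Alamar blue incubation and fluorescent plate reading at 544 nm/590 nm, and effects were expressed relative to control cells.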

[8] = molecular target: PLK3 (h) (Homo sapiens, UniProt Q9H4B4); assay: PLK3 human kinase inhibition, SPA; format: biochemical; details: read-out: PLK3 pIC50 (converted)
Summary of the method: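 Radiometric scintillation proximity format at pH 8.0 (Hepes, MnCl2, DTT). The 2 μM biotin-peptide substrate is phosphorylated by PLK3 (h) (30 μg/ml) using 0.1 μM ATP traced with 33P, for 20 min at room temperature. EDTA stop; phosphopeptide captured on streptavidin beads and imaged.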

[9] = molecular target: PLK4 (h) (Homo sapiens, UniProt O00444); assay: PLK-4 human kinase inhibition, scintillation proximity assay (SPA); format: biochemical; details: read-out: PLK4 pIC50 (converted)
PLK4 (h), sequence (O00444 whole entry): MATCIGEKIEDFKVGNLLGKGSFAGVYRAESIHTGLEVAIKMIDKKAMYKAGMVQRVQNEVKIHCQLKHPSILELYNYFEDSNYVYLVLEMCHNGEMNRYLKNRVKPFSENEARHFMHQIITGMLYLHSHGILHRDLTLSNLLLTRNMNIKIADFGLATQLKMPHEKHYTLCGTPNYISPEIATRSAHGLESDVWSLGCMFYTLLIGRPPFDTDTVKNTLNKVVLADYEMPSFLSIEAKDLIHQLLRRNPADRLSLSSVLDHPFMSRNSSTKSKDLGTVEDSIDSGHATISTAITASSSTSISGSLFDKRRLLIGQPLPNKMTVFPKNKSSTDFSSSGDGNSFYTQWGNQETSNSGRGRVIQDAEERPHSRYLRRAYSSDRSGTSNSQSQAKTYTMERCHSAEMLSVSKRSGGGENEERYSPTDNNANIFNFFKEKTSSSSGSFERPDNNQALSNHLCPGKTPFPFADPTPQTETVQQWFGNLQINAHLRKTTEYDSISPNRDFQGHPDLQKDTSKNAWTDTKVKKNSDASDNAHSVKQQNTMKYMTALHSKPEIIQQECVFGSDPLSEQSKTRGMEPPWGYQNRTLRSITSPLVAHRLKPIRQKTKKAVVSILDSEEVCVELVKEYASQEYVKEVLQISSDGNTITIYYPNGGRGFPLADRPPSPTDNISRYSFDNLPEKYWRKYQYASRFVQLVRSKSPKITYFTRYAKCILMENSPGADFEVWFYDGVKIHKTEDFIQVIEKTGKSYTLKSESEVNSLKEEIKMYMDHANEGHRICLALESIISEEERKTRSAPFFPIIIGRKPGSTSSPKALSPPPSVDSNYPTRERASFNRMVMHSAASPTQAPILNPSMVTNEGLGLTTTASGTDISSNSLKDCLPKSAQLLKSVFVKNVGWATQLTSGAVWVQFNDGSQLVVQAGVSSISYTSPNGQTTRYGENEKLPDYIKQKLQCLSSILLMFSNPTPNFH

PLK3 (h), sequence (Q9H4B4 whole entry): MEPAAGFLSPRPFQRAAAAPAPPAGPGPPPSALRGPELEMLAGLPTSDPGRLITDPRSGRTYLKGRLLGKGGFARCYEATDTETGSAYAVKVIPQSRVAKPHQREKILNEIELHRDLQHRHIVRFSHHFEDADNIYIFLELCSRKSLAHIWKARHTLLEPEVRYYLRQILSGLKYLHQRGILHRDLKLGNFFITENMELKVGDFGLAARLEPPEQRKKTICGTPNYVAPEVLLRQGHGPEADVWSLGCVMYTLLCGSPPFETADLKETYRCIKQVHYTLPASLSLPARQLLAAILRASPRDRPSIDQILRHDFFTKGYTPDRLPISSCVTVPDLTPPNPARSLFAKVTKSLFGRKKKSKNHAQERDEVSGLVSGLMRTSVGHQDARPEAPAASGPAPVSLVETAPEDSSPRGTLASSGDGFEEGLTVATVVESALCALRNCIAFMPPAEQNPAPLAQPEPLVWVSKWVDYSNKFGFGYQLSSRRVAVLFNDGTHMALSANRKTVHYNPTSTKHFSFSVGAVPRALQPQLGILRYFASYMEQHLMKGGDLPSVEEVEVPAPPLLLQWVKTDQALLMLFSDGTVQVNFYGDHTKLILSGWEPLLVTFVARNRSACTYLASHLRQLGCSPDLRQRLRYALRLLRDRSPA
PLK1 T210D (h), sequence (P53350 whole entry T210D): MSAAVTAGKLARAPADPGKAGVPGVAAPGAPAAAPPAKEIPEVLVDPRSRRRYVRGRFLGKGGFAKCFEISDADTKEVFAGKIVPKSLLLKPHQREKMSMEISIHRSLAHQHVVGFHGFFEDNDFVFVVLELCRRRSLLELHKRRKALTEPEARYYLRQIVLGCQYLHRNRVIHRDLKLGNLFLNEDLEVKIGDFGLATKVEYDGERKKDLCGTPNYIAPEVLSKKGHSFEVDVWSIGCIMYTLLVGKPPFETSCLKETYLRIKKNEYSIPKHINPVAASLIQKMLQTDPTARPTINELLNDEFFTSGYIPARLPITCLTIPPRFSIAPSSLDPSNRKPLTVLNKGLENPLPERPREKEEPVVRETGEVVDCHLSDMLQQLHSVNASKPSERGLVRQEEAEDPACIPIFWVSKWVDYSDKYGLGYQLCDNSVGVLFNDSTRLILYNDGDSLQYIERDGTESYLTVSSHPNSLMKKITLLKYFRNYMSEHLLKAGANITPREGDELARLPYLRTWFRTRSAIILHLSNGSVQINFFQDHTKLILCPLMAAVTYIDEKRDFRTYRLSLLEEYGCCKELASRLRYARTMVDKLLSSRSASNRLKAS
CDK1/CyclinB (h), sequence (P06493 whole entry): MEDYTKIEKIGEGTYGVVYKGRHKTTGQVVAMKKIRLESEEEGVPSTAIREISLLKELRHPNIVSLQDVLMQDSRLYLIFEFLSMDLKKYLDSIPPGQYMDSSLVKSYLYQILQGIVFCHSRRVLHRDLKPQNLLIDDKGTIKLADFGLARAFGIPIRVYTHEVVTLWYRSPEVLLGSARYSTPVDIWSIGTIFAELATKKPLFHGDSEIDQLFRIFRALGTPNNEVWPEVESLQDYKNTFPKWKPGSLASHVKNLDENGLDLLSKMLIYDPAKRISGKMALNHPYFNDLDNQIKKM
CDK1/CyclinB (h), sequence (P14635 whole entry partner): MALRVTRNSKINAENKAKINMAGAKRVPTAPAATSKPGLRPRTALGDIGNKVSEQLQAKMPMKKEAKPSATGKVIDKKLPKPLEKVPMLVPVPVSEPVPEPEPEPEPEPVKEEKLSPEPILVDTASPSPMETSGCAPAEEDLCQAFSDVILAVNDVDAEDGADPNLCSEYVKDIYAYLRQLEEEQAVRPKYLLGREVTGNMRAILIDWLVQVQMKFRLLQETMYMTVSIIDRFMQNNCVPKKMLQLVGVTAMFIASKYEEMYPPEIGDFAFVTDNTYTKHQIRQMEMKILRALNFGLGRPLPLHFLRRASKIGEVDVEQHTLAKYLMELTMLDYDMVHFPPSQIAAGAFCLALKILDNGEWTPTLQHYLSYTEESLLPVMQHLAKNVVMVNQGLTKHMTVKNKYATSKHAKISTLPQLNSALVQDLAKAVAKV
PLK2 (h), sequence (Q9NYY3 whole entry): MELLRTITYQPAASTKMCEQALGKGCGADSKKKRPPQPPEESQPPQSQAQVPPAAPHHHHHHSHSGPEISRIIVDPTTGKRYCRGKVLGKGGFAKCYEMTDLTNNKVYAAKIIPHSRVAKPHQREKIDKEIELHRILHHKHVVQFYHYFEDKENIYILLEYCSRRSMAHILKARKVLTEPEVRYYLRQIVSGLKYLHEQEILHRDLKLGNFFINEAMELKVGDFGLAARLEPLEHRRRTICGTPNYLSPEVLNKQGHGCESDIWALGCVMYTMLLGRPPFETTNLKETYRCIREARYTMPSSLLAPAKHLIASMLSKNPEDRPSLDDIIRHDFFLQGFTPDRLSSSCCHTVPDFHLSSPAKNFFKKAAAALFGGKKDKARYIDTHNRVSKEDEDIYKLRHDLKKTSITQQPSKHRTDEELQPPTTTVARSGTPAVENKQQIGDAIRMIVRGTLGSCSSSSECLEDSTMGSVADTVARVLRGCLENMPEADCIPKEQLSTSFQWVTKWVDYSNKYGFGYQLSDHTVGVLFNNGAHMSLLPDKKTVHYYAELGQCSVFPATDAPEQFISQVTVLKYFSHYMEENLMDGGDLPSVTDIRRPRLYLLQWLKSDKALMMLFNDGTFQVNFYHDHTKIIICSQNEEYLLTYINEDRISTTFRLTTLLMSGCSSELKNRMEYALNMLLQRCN

SMILES	IC50 [1]	IC50 [2]	IC50 [3]	IC50 [4]	IC50 [5]	IC50 [6]	IC50 [7]	IC50 [8]	IC50 [9]
CC(C)Nc1cc2cc(c1)Nc1nccc(n1)-c1ccc(cc1)CN(C)CCCNC(=O)C1CCN(CC1)C2 [Compound 65]	> 10 µM	> 10 µM	> 10 µM	7.24 µM	> 10 µM	> 10 µM	> 10 µM	> 10 µM	1.23 µM
CN1CCNC(=O)[C@@H]2CCCN2Cc2cc(cc(N3CCOCC3)c2)Nc2nccc(n2)-c2ccc(cc2)C1 [Compound 154]	> 10 µM	> 10 µM	> 10 µM	> 10 µM	> 10 µM	> 3.02 µM	> 10 µM	> 10 µM	0.813 µM
COc1cc2cc(c1)Nc1nccc(n1)-c1ccc(OC)c(c1)CN(C)CCCNC(=O)CN1CCN(CC1)C2 [Compound 140]	> 10 µM	> 10 µM	> 10 µM	4.07 µM	> 10 µM	> 10 µM	> 10 µM	> 10 µM	2.69 µM
COc1ccc2cc1CN(C)CCNC(=O)[C@@H]1CCCN1Cc1cc(NCCc3ccccc3)cc(c1)Nc1nccc-2n1 [Compound 163]	> 10 µM	> 10 µM	> 10 µM	6.92 µM	6.61 µM	> 10 µM	> 10 µM	> 10 µM	2.45 µM
COCCNC(=O)c1cc2cc(c1)Nc1nccc(n1)-c1cccc(c1)CNC(=O)[C@@H]1CCCN1C2 [Compound 44]	> 10 µM	0.427 µM	> 10 µM	1.91 µM	6.03 µM	> 10 µM	> 10 µM	> 10 µM	0.407 µM
O=C1NCc2cccc(c2)-c2ccnc(n2)Nc2cc(cc(C(=O)N3CCOCC3)c2)CN2CCC[C@@H]12 [Compound 32]	> 10 µM	0.55 µM	> 10 µM	> 10 µM	> 10 µM	> 10 µM	> 10 µM	> 10 µM	0.178 µM
COc1cc2cc(c1)Nc1nccc(n1)-c1ccc(cc1)CN(C)CCNC(=O)CN1CCN(CC1)C2 [Compound 132]	> 10 µM	> 10 µM	> 10 µM	8.71 µM	> 10 µM	> 3.02 µM	> 10 µM	> 10 µM	1.41 µM
O=C1NCc2cccc(c2)-c2ccnc(n2)Nc2cccc(c2)CN[C@H]1Cc1ccccc1 [Compound 185]	> 10 µM	4.79 µM	> 10 µM	6.76 µM	> 10 µM	> 10 µM	2.63 µM	> 10 µM	0.794 µM
O=C1NCc2cccc(c2)-c2ccnc(n2)Nc2ccc(N3CCOCC3)c(c2)CN[C@H]1Cc1ccccc1 [Compound 18]	> 10 µM	> 10 µM	> 10 µM	6.76 µM	9.33 µM	> 10 µM	> 10 µM	> 10 µM	0.646 µM
O=C1NCc2ccc(cc2)-c2ccnc(n2)Nc2ccc(N3CCOCC3)c(c2)CN2CCC1CC2 [Compound 12]	9.33 µM	> 10 µM	> 10 µM	0.955 µM	1.74 µM	> 10 µM	1.58 µM	> 10 µM	0.49 µM
CN1CCN(C(=O)c2ccc3cc2CN2CCC[C@H]2C(=O)NCc2cccc(c2)-c2ccnc(n2)N3)CC1 [Compound 25]	> 10 µM	> 10 µM	> 10 µM	> 10 µM	4.47 µM	> 10 µM	3.31 µM	> 10 µM	0.0933 µM
